One compound from patent US11439631B2, “Use of a glutarimide derivative to treat diseases related to the aberrant activity of cytokines” (“CHEMIMMUNE THERAPEUTICS” LIMITED LIABILITY COMPANY, priority 2017, dated 2022) can be followed below.

The subject of one assay is mouse model of psoriasis. Nature of the assay: Mouse model of psoriasis (Aldar cream, 5% imiquimod): ear thickness and clinical signs. The class given is in vivo, female Balb/c mice. Conditions: Compound 1 30 mg/kg, Neotigason 5 mg/kg, M ± m, n = 20. As for the experimental part: (§1) The induction of psoriasis in mice was carried out according to the standard procedure [European Journal of Pharmacology. 2015. V. 756. P. 43-51]. Aldar cream (5% imiquimod) was applied to female Balb/c mice on the inner side of the right ear once daily by 30 mg/mouse for 7 days (0-6th day). Vaseline was applied to the intact animals. […] Euthanasia was carried out 24 hours later (7th day) after the last application of the Aldar cream. Daily on the 0, 2nd, 3rd, 4th, 5th, 6th day, the thickness of the right ear was measured in the morning before the next application of the Aldar cream and before the euthanasia. After the euthanasia, blood was collected from the heart cavities, serum was isolated. The content of MCP1 was determined in blood serum by an enzyme-linked immunosorbent assay method, using test systems Mouse CCL2 (MCP-1) Uncoated ELISA Kit (Invitrogen).
2011. V. 88(1-2). P. 100-113].

Another assay deals with MCP-1 (CCL2). Nature of the assay: MCP-1 level in blood serum of mice on the psoriasis model (ELISA). Type of assay: in vivo, female Balb/c mice. Conditions: day 7, 30 mg/kg intragastric, M ± m, n = 10. Here is the method: as §1
For assay [1], the system named is thermal pain irritation (hot plate). The assay can be described thus: Thermal pain irritation model hot plate. Type of assay: in vivo, Balb/c mice. Conditions: intragastric administration. As for the experimental part: The model of thermal pain irritation “hot plate” was carried out according to the standard procedure [Valdman A. V., Ignatov Y. D. Central mechanisms of pain. L.: Nauka, 1976]. The test compound was administered to Balb/c mice intragastrically, once. After 1, 4, 6, 12, 24 hours after the administration of the preparation, the “hot plate” test was carried out. To conduct the “hot plate” test, the mice were placed on the hot plate, the temperature (+55±1° C.) of which is constant. The time of first manifestations of the pain response in mice (paw licking, jumping) was registered and the mean latent time of the threshold of pain sensitivity (TPS, sec) in each group was calculated.

Assay [2] has as its system non-infectious pneumonia induced by cigarette smoke extract. The assay can be described thus: Non-infectious pneumonia induced by cigarette smoke extract, lung histology. Type of assay: in vivo, male Balb/c mice. Conditions: 30 mg/kg intragastric daily day 7-27, 5-point scale; M ± m, n = 12. As for the experimental part: The induction of non-infectious pneumonia in mice was carried out according to the standard procedure [Zhang Yl, Cao J, Chen Y, Chen P, Peng H, Cai S, Luo H, Wu SJ. […] Male Balb/c mice were intraperitoneally administered with cigarette smoke extract (CSE, 0.45 ml/20 mg) at 0, 11th, 15th, 17th, 19th and 22nd day. The CSE was prepared as follows: 5 cigarettes were burnt, using a vacuum pump, the smoke was filtered to remove particles and collected in a vessel containing a phosphate saline buffer. […] Euthanasia was carried out on the 28th day. The right lung lobe was fixed in 10% neutral formalin solution, passed through the alcohols of ascending concentrations to xylene, and embedded in paraffin by standard procedures. Deparaffinated 5-micron shears were stained with hematoxylin-eosin and the histological analysis was carried out.
Each lesion was evaluated according to a 5-point scale: 1 point—the inflammatory infiltrate occupies 0-20% of the area of the histological preparation under study, 2 point—the inflammatory infiltrate occupies 21-40% of the area of the histological preparation under study, 3 points—the inflammatory infiltrate occupies 41-60% of the area of the histological preparation under study, 4 points—the inflammatory infiltrate occupies 61-80% of the area of the histological preparation under study, 5 points—the inflammatory infiltrate occupies 81-100% of the area of the histological preparation under study. Alveolar destruction index (DI) as the percentage of the damaged alveoli relative to the total number of alveoli was also calculated.

Assay [3] deals with non-infectious pneumonia induced by poly I:C. Nature of the assay: Non-infectious pneumonia induced by intranasal administration of poly I:C to mice (BAL neutrophils, lung histology). Type of assay: in vivo, female Balb/c mice. As for the experimental part: The induction of pneumonia in mice was carried out according to the standard procedure [Eur Respir J. 2013 V. 41(5). […] Female Balb/c mice were intranasally administered with 8 μg/kg of polyinosine-polycytidylic acid (poly I:C) in 30 μl of PBS on days 1, 2, 3 and 4. Then at days 15, 16, 17 and 18, in the same volume 2 μg/kg of poly I:C were administered to the animals. […] All mice were sacrificed on the 19th day of the study. The bronchus from the right lung was pinched by the ligature, the left lung was washed 3 times with 0.8 ml of the sterile PBS. After each administration of PBS into the lung, the gentle massage of the lung was carried out, PBS was drained by gravity. Finally, the final volume of the resulting bronchoalveolar lavage (BAL) was considered and written. A number of neutrophils was evaluated in the BAL (using the Diff-Quik staining). For histological study, the right lung lobe was fixed in 10% neutral formalin solution and embedded in paraffin by the standard procedure. Deparaffinated 5-micron shears were stained with hematoxylin-eosin. Each lesion was evaluated according to a 5-point scale: 1 point—the inflammatory infiltrate occupies 0-20% of the area of the histological preparation under study, 2 point—the inflammatory infiltrate occupies 21-40% of the area of the histological preparation under study, 3 points—the inflammatory infiltrate occupies 41-60% of the area of the histological preparation under study, 4 points—the inflammatory infiltrate occupies 61-80% of the area of the histological preparation under study, 5 points—the inflammatory infiltrate occupies 81-100% of the area of the histological preparation under study. Alveolar destruction index (DI) as the percentage of the damaged alveoli relative to the total number of alveoli was also calculated.

[4] abbreviates: 30 mg/kg intragastric daily day 6-19, 5-point scale, M ± m, n = 7.

`O=C1CCCC(=O)N1CCc1cnc[nH]1` [Compound 1, 1-(2-(1H-imidazol-4-yl)ethyl)piperidine-2,6-dione]: in the assay with mouse model of psoriasis (Day 2, intragastric once daily), the “The gain of the ear thickness at the determined day of study to day 0, Day 2” value is on record as 7.8 ± 1.4& %. Moreover, the “The gain of the ear thickness at the determined day of study to day 0, Day 3” value in the assay on mouse model of psoriasis (Day 3, intragastric once daily) is 11.2 ± 1.9& %. In addition, the “The gain of the ear thickness at the determined day of study to day 0, Day 4” value in the assay with mouse model of psoriasis (Day 4, intragastric once daily) is on record as 33.8 ± 1.6& %. In the assay with mouse model of psoriasis (Day 4, score 0-4 (Table 1)), the “Clinical signs of psoriasis, Erythema, Day 4” value was 1.5 ± 0.1*& points; the “Clinical signs of psoriasis, Flakes, Day 4” value is reported as 0.0 ± 0.0& points; the “Clinical signs of psoriasis, Thickening, Day 4” value is 0.9 ± 0.1*& points. Also, the “The gain of the ear thickness at the determined day of study to day 0, Day 5” value with mouse model of psoriasis (Day 5, intragastric once daily) is recorded as 46.9 ± 1.6*& %. Also, the “The gain of the ear thickness at the determined day of study to day 0, Day 6” value in the assay with mouse model of psoriasis (Day 6, intragastric once daily) is given as 55.8 ± 0.8*& %. In addition, in the assay on mouse model of psoriasis (Day 6, score 0-4 (Table 1)), the “Clinical signs of psoriasis, Erythema, Day 6” value is recorded as 1.3 ± 0.1*& points; the “Clinical signs of psoriasis, Flakes, Day 6” value was 0.1 ± 0.1& points; the “Clinical signs of psoriasis, Thickening, Day 6” value is 1.3 ± 0.1*& points. In the assay on MCP-1 (CCL2), the “MCP-1 level in blood serum” value was 113.7 ± 8.3 & pg/ml. In addition, the “Increase of the threshold of pain sensitivity in the hot plate test” value in assay [1] was 2 times. In addition, in assay [2], the Interstitial pneumonia is 1.08 ± 0.16& points, the Peribronchitis is recorded as 0.13 ± 0.07& points and the Perivasculitis was 1.03 ± 0.11& points. Moreover, in assay [3] (setting [4]), the Interstitial pneumonia is 0.76 ± 0.1& points, the Peribronchitis is 0.73 ± 0.32& points and the Perivasculitis was 0.80 ± 0.31& points. The “Neutrophils in 1 μl Score (bronchoalveolar lavage)” value in assay [3] (30 mg/kg intragastric daily day 6-19, M ± m, n = 7) is listed as 0.0 ± 0.0& in 1 μl. Further, the “Influx of neutrophils into the bronchoalveolar space” value in assay [3] (intragastric administration) is listed as “completely abolished”.
